Measurements taken from patent US20130164336A1, “ANTIMICROBIAL AND ANTI-INFLAMMATORY ACTION PHARMACEUTICAL COMPOSITION FOR PARENTERAL ADMINISTRATION AND ITS PRODUCTION PROCESS” (priority 2010, published 2013).

What was measured:
Format in all cases: in vivo
[1] = test system: Escherichia coli (ATCC No 25922 F-50); experiment: Experimental sepsis model in mice, survival on the 7th day; conditions: E. coli 8×10^8 CFU/mouse
Excerpt: (§1) To determine therapeutic efficiency of fosfamicin and their pharmaceutical compositions including BHSiO2, we used experimental sepsis models and a statistical processing methos of the received data (χ^2) according to [29, 30].
(§2) Microorganisms: Staphylococcus aureus (ATCC No 25923 F-49), Escherichia coli (ATCC No 25922 F-50), Pseudomonas aeruginosa (ATCC N227853 F-51).
(§3) Animals: for the experiments we used hybrid mice (CBA×C57Black/6)CBF1 according to the “Regulations for test animals use” (USSR Ministry of health order supplement No 755 from 12.08. 1977).
(§4) The mice have been injected 0.8 ml of Pseudomonas aeruginosa daily culture suspension with a dosage 5×10^8 CFU/mouse or Staphylococcus aureus daily culture suspension with a dosage 10^10 CFU/mouse or Escherichia coli daily culture suspension with a dosage 8×10^8 CFU/mouse. The control group has been injected with 0.8 ml of normal saline solution (0.9% sodium chloride solution). In a day after being infected the test mice have been daily (during 3 days) intravenous injected with 100 mg/kg of antibiotics or different pharmaceutical compositions (antibiotic/BHSiO2) watered down with 0.25 ml of normal saline solution. The control group of mice has been injected using the same scheme with normal saline solution 0.25 mg.
(§5) Antimicrobial therapy efficiency has been estimated basing on the q-ty of the living mice on the 7th day of the experiment.
(§6) The obtained data stated in Table No 2 reflect the results of 3 independent experiments conducted for each test group.

[2] = test system: Pseudomonas aeruginosa (ATCC N227853 F-51); experiment: as above; conditions: P. aeruginosa 5×10^8 CFU/mouse
Excerpt: as §1, §2, §3, §4, §5, §6

[3] = test system: Staphylococcus aureus (ATCC No 25923 F-49); experiment: as above; conditions: S. aureus 10^10 CFU/mouse
Excerpt: as §1, §2, §3, §4, §5, §6

[4] = test system: Pseudomonas aeruginosa; experiment: Anti-inflammatory action: peripheral blood leukocytes of mice surviving to day 7 after sepsis induction; conditions: mice infected with Pseudomonas aeruginosa surviving to day 7, median, low and high quartiles
Procedure: as §4, with “The control group has been injected with 0.8 ml of normal saline solution (0.9% sodium chloride solution).” left out, “solution.” for “solution. The control group of mice has been injected using the same scheme with normal saline solution 0.25 mg.”
(§7) It is known that in case of sepsis the quantity of peripheral blood leucocytes can determine the activity of the inflammatory process.
(§8) We have studied the leukocytes quantity of the mice that have survived until the day 7 after sepsis induction, according to the method described above.

[5] = test system: Staphylococcus aureus; experiment: as above; conditions: mice infected with Staphylococcus aureus surviving to day 7, median, low and high quartiles
Procedure: as §4, with “The control group has been injected with 0.8 ml of normal saline solution (0.9% sodium chloride solution).” left out, “solution.” for “solution. The control group of mice has been injected using the same scheme with normal saline solution 0.25 mg.”
as §7, §8

[6] = 100 mg/kg intravenous daily for 3 days
[7] = 100 mg/kg intravenous daily for 3 days from a day after infection

Compound: C[C@@H]1O[C@@H]1P(=O)(O)O [Fosfomycin, fosfomycin]
- Mice survival on the 7th day, survived/infected animals (absolute values) [1, 6]: (14/30)
- Mice survival rate on the 7th day of infection [1, 7]: 46.6%
- Mice survival on the 7th day, survived/infected animals (absolute values) [2, 6]: (10/31)
- Mice survival rate on the 7th day of infection [2, 7]: 32.2%
- Mice survival on the 7th day, survived/infected animals (absolute values) [3, 6]: (12/30)
- Mice survival rate on the 7th day of infection [3, 7]: 40%
- Leukocytes quantity Me(LQ-HQ) [4]: 17.13 (16.0-18.63) × 10^9/l
- Leukocytes quantity Me(LQ-HQ) [5]: 17.38 (15.5-21.5) × 10^9/l
